# Values quoted from earlier work, collected in US20080200512A1, “Hepatitis C virus polymerase inhibitors” (priority 2007, published 2008).
# Tested on: HCV
# Settings: monotherapy
smiles,measurement,value
"NC(=O)c1ncn([C@@H]2O[C@H](CO)[C@@H](O)[C@H]2O)n1 [ribavirin, 1-((2R,3R,4S,5R)-3,4-dihydroxy-5-hydroxymethyl-tetrahydro-furan-2-yl)-1H-[1,2,4]triazole-3-carboxylic acid amide]",patients in whom serum amino transferase levels are reduced to normal,40%
